Assay results as given in BigSolDB 2.1.

[NH3+]O.[NH3+]O.[O-]n1nnnc1-c1nnnn1[O-]
solubility (mole fraction)
Settings	298.15 K	303.15 K	308.15 K	313.15 K	318.15 K	323.15 K	328.15 K	333.15 K
in acetic acid	7.44e-05	8.86e-05	0.000105	0.000125	0.000146	0.000171	0.000199	0.000231
in ethanol	1.35e-05	1.54e-05	1.76e-05	2.01e-05	2.27e-05	2.56e-05	2.88e-05	3.24e-05
in formic acid	0.00144	0.00163	0.00183	0.00205	0.00229	0.00254	0.00283	0.00313
in water	0.000128	0.000156	0.00019	0.000228	0.000274	0.000325	0.000385	0.000456
